Values joined by “and” are separate entries in the source; they are usually repeats but may differ in a detail not shown here. Equal entries are not always repeated. Active and inactive are the calls of the source. No cut-off for these calls is given here.
How the values were obtained:
Plasmodium falciparum [1] = experiment: Antiprotozoal activity against intraerythrocytic stage of chloroquine/pyrimethamine-resistant Plasmodium falciparum K1 by [3H]hypoxanthine incorporation assay; assay type: functional, organism-based
[2] = Binding affinity to fish sperm DNA assessed as hypochromicity after 1 min by UV-Vis spectrophotometry; set-up: concentration or dose not given beside the values
Leishmania donovani = experiment: Antiprotozoal activity against axenic amastigote stage of Leishmania donovani MHOM-ET-67/L82 by alamar-blue assay; assay type: functional, organism-based
[3] = tested on: Trypanosoma brucei rhodesiense; experiment: Antitrypanosomal activity against Trypanosoma brucei rhodesiense STIB900 infected in NMRI mouse assessed as cure at 20 mg/kg, ip administered for 4 days; assay type: functional, organism-based; set-up: dose 20 mg/kg
[4] = tested on: Trypanosoma brucei rhodesiense; experiment: Antiprotozoal activity against bloodstream form of Trypanosoma brucei rhodesiense STIB900 trypomastigote by alamar-blue assay; assay type: functional, organism-based
[5] = Selectivity index, ratio of CC50 for rat L6 cells to IC50 for bloodstream form of Trypanosoma brucei rhodesiense STIB900; assay type: functional
[6] = tested on: Trypanosoma brucei rhodesiense; experiment: Antitrypanosomal activity against Trypanosoma brucei rhodesiense STIB900 infected in NMRI mouse assessed as cure at 50 mg/kg, po administered for 4 days; assay type: functional, organism-based; set-up: dose 50 mg/kg
[7] = Selectivity index, ratio of CC50 for rat L6 cells to IC50 for Plasmodium falciparum K1; assay type: functional
[8] = (§1) Cytotoxicity against rat L6 cells; assay type: cell-based; settings: L6 cells
Trypanosoma cruzi = experiment: Antiprotozoal activity against intracellular amastigote stage of Trypanosoma cruzi Tulahuen C4 by colorimetric assay; assay type: functional, organism-based
[9] = tested on: Trypanosoma brucei rhodesiense; experiment: Antitrypanosomal activity against Trypanosoma brucei rhodesiense STIB900 infected in NMRI mouse assessed as time duration by measuring mean day of relapse at 20 mg/kg, ip administered for 4 days; assay type: functional; settings: route intraperitoneal
[10] = tested on: Trypanosoma brucei rhodesiense; experiment: Antitrypanosomal activity against Trypanosoma brucei rhodesiense STIB900 infected in NMRI mouse assessed as time duration by measuring mean day of relapse at 50 mg/kg, po administered for 4 days; assay type: functional
Hyperoartia [11] = experiment: Binding affinity to fish sperm DNA by circular dichroism spectroscopy
Hyperoartia [12] = experiment: Binding affinity to fish sperm DNA assessed as reduction in positive band at compound/DNA ratio 1 to 2 by circular dichroism spectroscopy
[13] = tested on: Trypanosoma brucei rhodesiense; experiment: Antitrypanosomal activity against Trypanosoma brucei rhodesiense STIB900 infected in NMRI mouse assessed as cure at 5 mg/kg, ip administered for 4 days; assay type: functional, organism-based; set-up: dose 5 mg/kg
Hyperoartia [14] = experiment: Binding affinity to fish sperm DNA assessed as weak negative band at compound/DNA ratio 1 to 2 by circular dichroism spectroscopy
Hyperoartia [15] = experiment: Binding affinity to fish sperm DNA assessed as positive band of unvarying intensity at compound/DNA ratio 0.5 to 0.6 by circular dichroism spectroscopy
Plasmodium falciparum [16] = experiment: Antiprotozoal activity against intraerythrocytic stage of chloroquine-sensitive Plasmodium falciparum NF54 by [3H]hypoxanthine incorporation assay; assay type: functional, organism-based
[17] = Selectivity index, ratio of CC50 for rat L6 cells to IC50 for Plasmodium falciparum NF54; assay type: functional
[18] = tested on: Trypanosoma brucei rhodesiense; experiment: Antitrypanosomal activity against Trypanosoma brucei rhodesiense STIB900 infected in NMRI mouse assessed as time duration by measuring mean day of relapse at 5 mg/kg, ip administered for 4 days; assay type: functional; settings: route intraperitoneal
Mus musculus = experiment: Toxicity in NMRI mouse infected with Trypanosoma brucei rhodesiense STIB900 at 20 mg/kg, ip administered for 4 days; assay type: organism-based; set-up: dose 20 mg/kg, route intraperitoneal; settings: in vivo, 96 h
L6 = experiment: as §1; assay type: cell-based; settings: l6

In the case of Cl.Cl.O=c1c2cc(NC3=NCCN3)ccc2[nH]c2ccc(NC3=NCCN3)cc12, the IC50 (Plasmodium falciparum [1]) is reported as 0.34 µM, the Activity [2] is reported as 49% and the IC50 (Leishmania donovani) is reported as 177 µM. The Activity [3] was “Active”, the IC50 ([4]; Trypanosoma brucei, STIB900) was 0.069 µM and the “Ratio CC50/IC50” value [5] was over 3333. The Activity [6] was “inactive”, the “Ratio CC50/IC50” value [7] was over 666 and the CC50 [8] was over 230 µM. The IC50 (Trypanosoma cruzi) was over 230 µM, the Time [9] was over 45.5 days and the Time [10] was 22 days.

COc1cc([C@@H]2c3cc4c(cc3[C@H](O)[C@H]3COC(=O)[C@H]23)OCO4)cc(OC)c1OC [PODOFILOX] gave a CC50 [8] of 0.012 µM.

Work on Nc1ccc2[nH]c3ccc(N)cc3c(=O)c2c1 yielded an IC50 (Plasmodium falciparum [1]) of 2.5 µM, an IC50 (Leishmania donovani) of 321 µM and an IC50 ([4]; Trypanosoma brucei, STIB900) of 2.9 µM. The CC50 [8] was 75 µM and the IC50 (Trypanosoma cruzi) was 149 µM.

In the case of Nc1ccc2c(=O)c3cc([N+](=O)[O-])ccc3[nH]c2c1, the IC50 (Plasmodium falciparum [1]) is reported as 34 µM, the IC50 (Leishmania donovani) is reported as 291 µM and the IC50 ([4]; Trypanosoma brucei, STIB900) is reported as 67 µM. It also gave a CC50 [8] of 147 µM and an IC50 (Trypanosoma cruzi) of 279 µM.

Nc1ccc2[nH]c3ccc([N+](=O)[O-])cc3c(=O)c2c1 gave an IC50 (Plasmodium falciparum [1]) of 49 µM, an IC50 (Leishmania donovani) of 77 µM and an IC50 ([4]; Trypanosoma brucei, STIB900) of 19.5 µM. For the same compound, the CC50 [8] was 186 µM and the IC50 (Trypanosoma cruzi) was 287 µM.

With CC(C)(C)OC(=O)N1CCN(C(=O)OC(C)(C)C)C1=Nc1ccc2[nH]c3ccc(N=C4N(C(=O)OC(C)(C)C)CCN4C(=O)OC(C)(C)C)cc3c(=O)c2c1 the IC50 (Plasmodium falciparum [1]) was 33 µM, the IC50 (Leishmania donovani) was over 127 µM and the IC50 ([4]; Trypanosoma brucei, STIB900) was 2.2 µM. For the same compound, the CC50 [8] was 73 µM and the IC50 (Trypanosoma cruzi) was 50 µM.

In the case of O=c1c2ccc(NC3=NCCN3)cc2[nH]c2cc(NC3=NCCN3)ccc12, the Activity (Hyperoartia [11]) is reported as “Active”, the Activity (Hyperoartia [12]) is reported as “Active” and the Activity [13] is reported as “inactive”. The Activity (Hyperoartia [14]) was “Active”, the Activity (Hyperoartia [15]) was “Active” and the Activity [2] was 40% and 35%.

With Cl.Cl.O=c1c2ccc(NC3=NCCN3)cc2[nH]c2ccc(NC3=NCCN3)cc12 the Activity (Hyperoartia [11]) was “Active”, the IC50 (Plasmodium falciparum [16]; Plasmodium falciparum, NF54) was 0.83 µM and the Activity [2] was 47%. For the same compound, the IC50 (Leishmania donovani) was 73 µM, the Activity [3] was “Active” and the IC50 ([4]; Trypanosoma brucei, STIB900) was 0.007 µM. For the same compound, the “Ratio CC50/IC50” value [17] was 128, the “Ratio CC50/IC50” value [5] was 15257 and the CC50 [8] was 107 µM. The IC50 (Trypanosoma cruzi) was over 230 µM and the Time [9] was over 50 days.

Compound Nc1cccc(Nc2ccc([N+](=O)[O-])cc2C(=O)O)c1 has an IC50 (Plasmodium falciparum [1]) of 70 µM, an IC50 (Leishmania donovani) of 61 µM and an IC50 ([4]; Trypanosoma brucei, STIB900) of 124 µM. The CC50 [8] was 266 µM and the IC50 (Trypanosoma cruzi) was 271 µM.

In the case of Cn1c2ccc(NC3=NCCN3)cc2c(=O)c2cc(NC3=NCCN3)ccc21.O=C(O)C(F)(F)F.O=C(O)C(F)(F)F, the IC50 (Plasmodium falciparum [16]; Plasmodium falciparum, NF54) is reported as 0.22 µM, the Activity [2] is reported as 48% and the IC50 ([4]; Trypanosoma brucei, STIB900) is reported as 0.007 µM. The “Ratio CC50/IC50” value [17] was 468, the “Ratio CC50/IC50” value [5] was 14843 and the CC50 [8] was 104 µM.

In the case of O=C(O)C(F)(F)F.O=C(O)C(F)(F)F.O=C1c2ccc(NC3=NCCN3)cc2C(=O)c2ccc(NC3=NCCN3)cc21, the Activity (Hyperoartia [11]) is reported as “Active”, the IC50 (Plasmodium falciparum [1]) is reported as 0.06 µM and the Activity [2] is reported as 46%. The IC50 (Leishmania donovani) was 145 µM, the Activity [3] was “Active” and the IC50 ([4]; Trypanosoma brucei, STIB900) was 2.3 µM. For the same compound, the “Ratio CC50/IC50” value [7] was 1229, the CC50 [8] was 75 µM and the IC50 (Trypanosoma cruzi) was 104 µM.

Nc1ccc(Nc2ccc([N+](=O)[O-])cc2C(=O)O)cc1 showed an IC50 (Plasmodium falciparum [1]) of 52 µM, an IC50 (Leishmania donovani) of 23 µM and an IC50 ([4]; Trypanosoma brucei, STIB900) of 55 µM. For the same compound, the CC50 [8] was over 365 µM and the IC50 (Trypanosoma cruzi) was 292 µM.

Compound Cl.Cl.O=c1c2ccc(NC3=NCCN3)cc2[nH]c2cc(NC3=NCCN3)ccc12 has a Time [18] of 14 days, an IC50 (Plasmodium falciparum [16]) of 0.25 µM and an IC50 (Leishmania donovani) of 113 µM. For the same compound, the IC50 [4] was 0.062 µM, the “Ratio CC50/IC50” value [17] was 546 and the “Ratio CC50/IC50” value [5] was 2210. For the same compound, the Activity (Mus musculus) was “Non-toxic”, the CC50 [8] was 137 µM and the IC50 (Trypanosoma cruzi) was over 230 µM.

Compound Cn1c2ccc(NC3=NCCN3)cc2c(=O)c2ccc(NC3=NCCN3)cc21.O=C(O)C(F)(F)F.O=C(O)C(F)(F)F has an IC50 (Plasmodium falciparum [16]; Plasmodium falciparum, NF54) of 0.56 µM, an Activity [2] of 50% and an IC50 ([4]; Trypanosoma brucei, STIB900) of 0.008 µM. The “Ratio CC50/IC50” value [17] was 175, the “Ratio CC50/IC50” value [5] was 12287 and the CC50 [8] was 98 µM.

With O=C(O)C(F)(F)F.O=C(O)C(F)(F)F.O=c1c2ccc(NC3=NCCN3)cc2[nH]c2cc(NC3=NCCN3)ccc12 the IC50 (Plasmodium falciparum [16]) was 0.09 µM, the IC50 ([4]; Trypanosoma brucei, STIB900) was 0.06 µM and the “Ratio CC50/IC50” value [17] was 1149. The “Ratio CC50/IC50” value [5] was 1647 and the CC50 (L6) was 99 µM.

Nc1ccc2c(=O)c3cc(N)ccc3[nH]c2c1 gave an IC50 (Plasmodium falciparum [1]) of 4.8 µM, an IC50 (Leishmania donovani) of 288 µM and an IC50 ([4]; Trypanosoma brucei, STIB900) of 19.2 µM. For the same compound, the CC50 [8] was 23 µM and the IC50 (Trypanosoma cruzi) was 269 µM.

For CCCCCCCCCCCCCCCCOP(=O)([O-])OCC[N+](C)(C)C [MILTEFOSINE], the IC50 (Leishmania donovani) was 0.45 µM.
